Measurements as given in US7569239B2, “Antioxidative compositions” (priority 2002, dated 2009).

Tested on: colitis (colon growth caused by inflammation)
Test: DNBS-induced colitis in rats (animal model for inflammatory bowel disease)
Format: in vivo, male Spregue-Dawley rats
Conditions: oral once a day for 7 days, rat
Experimental: In one experiment, male Spregue-Dawley rats (150-180 gram; Charles River Lab, Boston, Mass.) were kept in filter-topped cages with free access to food and water, and housed in a positive pressure room with controlled temperature and photoperiod during studies. As an animal model for inflammatory bowel disease (e.g., Crohn's disease), colitis (colon growth caused by inflammation) was induced by intracolonic instillation of 25 mg of a hapten reagent, 2,4-dinitrobenzenesulfonic acid (TCI, Japan), in 0.5 ml of 30% vol/vol ethanol. Each rat was first anaesthetized with […]/ethanol was injected into the colon, 8 cm proximal to the anus, with a PE 50 cannula. 2 ml of air was then gently injected through the cannula to ensure that the solution remained in the colon. The rat was then kept in a vertical position for 30 second and returned to its cage. By using the same procedures, rats in the blank-control group received 0.5 ml of 30% ethanol. See Hogaboam, et al., Eur. J. Pharmacol. (1996) 309:261-269. […] Each daily dose contained 3.125 mg to 25 mg of quercetin aglycon for each kilogram of body weight. The weight of each rat was monitored every 24 hours. […] Before removal of each colon, the presence or absence of adhesions between the colon and other organs were recorded upon opening the abdominal cavity. The colon-to-body weight ratio was then calculated for each animal. […]

O=c1c(O)c(-c2ccc(O)c(O)c2)oc2cc(O)cc(O)c12 [quercetin aglycon]
inhibition of colon growth (colon-to-body weight ratio) (3.125 mg/kg quercetin aglycon): failed to do so | inhibition of colon growth (colon-to-body weight ratio) (25 mg/kg quercetin aglycon): inhibited colon growth
